Measured values from patent US10294229B2, “Heteroaryl substituted aminopyridine compounds” (BRISTOL-MYERS SQUIBB COMPANY, priority 2015, dated 2019).
pEC50, pIC50: −log10 of the molar value.

Key:
IRAK4 = IRAK4 (Homo sapiens (Human), UniProt Q9NWZ3); assay: IRAK4 Inhibition Assay; format: biochemical; details: ATP 500 μM; IRAK4 0.6 nM
Outline: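 Mobility-shift kinase assay: 0.6 nM IRAK4, 500 μM ATP, 1.5 μM fluorescent peptide, 60 min, room temperature. Percent inhibition was normalised between enzyme-free and DMSO-only wells.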

[1] = Caco-2 Permeability Assay; format: in vitro ADME; details: human, Caco-2, test compound 3 μM
Description: Caco-2 Permeability Assay
Thirteen to 27 days prior to assay, Caco-2 cells were seeded onto collagen-coated polycarbonate filter membranes in 24-well transwell plates at a density of 1.45×10^5 cells/cm^2, approximately 4.8×10^4 cells per well. The cells were grown in a culture medium consisting of DMEM supplemented with 10% fetal bovine serum, 10 mM HEPES, 1% nonessential amino acids, 2 mM L-glutamine, 100 U/mL penicillin-G, and 100 μg/mL streptomycin. The culture medium was replaced every 3 days and the cells were maintained at 37° C. in a 95% relative humidity and 5% CO2 atmosphere. The cells were evaluated for tight junction formation just prior to assay. The test compound was solubilized to 10 mM in 100% DMSO and diluted to 3 μM in assay buffer. Permeability studies were initiated by adding 200 μL assay buffer plus/minus compound to the apical transwell compartment and 600 μL assay buffer plus/minus compound to the basolateral compartment of the 24-well transwell low-binding cluster plate. For apical-to-basolateral (A to B) permeability (absorptive direction), buffer containing compound was placed in the apical compartment (donor wells), while buffer alone was placed in the corresponding basolateral compartments (receiver wells). For basolateral-to-apical (B to A) permeability (secretive direction), buffer containing compound was placed in the basolateral compartment (donor wells), while buffer alone was placed in the corresponding apical compartments (receiver wells). Transwells were then incubated for 2 hours at 37° C. in a 95% relative humidity and 5% CO2 atmosphere with gentle agitation. Following incubation, 100 μL was removed from each apical and basolateral compartment and transferred to 96-well low binding plates that had been previously loaded with 100 μL/well of acetonitrile containing 250 nM propranolol, 250 nM diclofenac, and 500 nM tolbutamide as internal standards. The samples were subsequently analyzed by LC-MS/MS to determine concentrations of compound.

[2] = tested on: Human whole blood stimulated with a TLR2 agonist (lipoteichoic acid), IL-6 levels; assay: IRAK4 Whole Blood Assay; format: cell-based; details: Homo sapiens, lipoteichoic acid 10 μg/mL
Outline: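 IL-6 was quantified by cytometric bead assay in supernatants of human blood (ACD-A) stimulated for 5 h with lipoteichoic acid at 10 μg/mL final. Compound exposure preceded stimulation for 60 min at 37 °C, 5% CO2.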

Chain of IRAK4 (Q9NWZ3 whole entry, species assumed): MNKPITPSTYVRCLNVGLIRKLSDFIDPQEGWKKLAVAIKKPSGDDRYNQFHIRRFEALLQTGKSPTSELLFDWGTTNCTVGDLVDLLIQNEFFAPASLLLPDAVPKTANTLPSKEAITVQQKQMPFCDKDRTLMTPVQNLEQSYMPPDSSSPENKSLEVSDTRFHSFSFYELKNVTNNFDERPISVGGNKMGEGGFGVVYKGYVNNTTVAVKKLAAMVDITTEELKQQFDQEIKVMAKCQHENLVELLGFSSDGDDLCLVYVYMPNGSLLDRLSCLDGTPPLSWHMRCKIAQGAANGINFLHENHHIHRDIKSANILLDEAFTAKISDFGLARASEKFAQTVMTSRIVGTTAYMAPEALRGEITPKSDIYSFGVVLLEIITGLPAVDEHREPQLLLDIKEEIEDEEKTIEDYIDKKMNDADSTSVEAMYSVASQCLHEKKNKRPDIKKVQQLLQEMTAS

Compound	pIC50 (IRAK4)	Papp at 2 h, 3 µM [1] [×10⁻⁶ cm/s]	pEC50 [2]
CCCn1cnc(-c2cnc(-n3ncc4cc(C#N)cnc43)cc2NC(C)C)c1 [Example 219]	8.00	31.8	5.83
CCCc1cn(-c2cnc(-n3ncc4cncnc43)cc2Nc2cnn(CC(F)F)c2)nn1 [Example 270, N-(1-(2,2-difluoroethyl)-1H-pyrazol-4-yl)-5-(4-propyl-1H-1,2,3-triazol-1-yl)-2-(1H-pyrazolo[3,4-d]pyrimidin-1-yl)pyridin-4-amine]	8.22	37.2	5.93
CC(=O)N1CC[C@H](n2cc(-c3cnc(-n4ncc5cc(C#N)cnc54)cc3NC(C)C)nn2)[C@H](O)C1 [Example 178, 1-(5-(1-((3R,4S)-1-acetyl-3-hydroxypiperidin-4-yl)-1H-1,2,3-triazol-4-yl)-4-(isopropylamino)pyridin-2-yl)-1H-pyrazolo[3,4-b]pyridine-5-carbonitrile]	8.22	< 1.5	6.28
CC(C)Nc1cc(-n2ncc3cc(C#N)cnc32)ncc1-c1nnc(C(=O)N2CCOCC2)o1 [Example 433, 1-(4-(isopropylamino)-5-(5-(morpholine-4-carbonyl)-1,3,4-oxadiazol-2-yl)pyridin-2-yl)-1H-pyrazolo[3,4-b]pyridine-5-carbonitrile]	7.96	1.7	6.70
CC(C)Nc1cc(-n2ncc3cc(C#N)cnc32)ncc1-c1cc(C(CO)CO)no1 [Example 399, 1-(5-(3-(1,3-dihydroxypropan-2-yl)isoxazol-5-yl)-4-(isopropylamino)pyridin-2-yl)-1H-pyrazolo[3,4-b]pyridine-5-carbonitrile]	8.00	< 1.5	6.85
CC(C)Nc1cc(-n2ccc3cncnc32)ncc1-c1cn([C@@H]2CCNC[C@@H]2O)nn1 [Example 7, (3S,4R)-4-(4-(4-(isopropylamino)-6-(7H-pyrrolo[2,3-d]pyrimidin-7-yl)pyridin-3-yl)-1H-1,2,3-triazol-1-yl)piperidin-3-ol]	8.15	3.9	5.39
CCC(C)(O)Cc1cn(-c2cnc(-n3ncc4cc(C#N)cnc43)cc2NC(C)C)nn1 (stereo not drawn) [Example 318, 1-(5-(4-(2-hydroxy-2-methylbutyl)-1H-1,2,3-triazol-1-yl)-4-(isopropylamino)pyridin-2-yl)-1H-pyrazolo[3,4-b]pyridine-5-carbonitrile]	7.60	10.8	6.10
CC(O)Cc1cn(-c2cnc(-n3ncc4cc(C#N)cnc43)cc2NCC(C)(C)O)nn1 (stereo not drawn) [Example 264, 1-(4-((2-hydroxy-2-methylpropyl)amino)-5-(4-(2-hydroxypropyl)-1H-1,2,3-triazol-1-yl)pyridin-2-yl)-1H-pyrazolo[3,4-b]pyridine-5-carbonitrile]	8.10	22.5	6.48
CC(C)Nc1cc(-n2ncc3cnc(N)nc32)ncc1-n1cc(CCC(C)(C)O)nn1 [Example 350, 4-(1-(6-(6-amino-1H-pyrazolo[3,4-d]pyrimidin-1-yl)-4-(isopropylamino)pyridin-3-yl)-1H-1,2,3-triazol-4-yl)-2-methylbutan-2-ol]	8.22	6.4	6.55

Stronger by pIC50 (IRAK4), values ahead:

pIC50 (IRAK4)	Papp at 2 h, 3 µM [1] [×10⁻⁶ cm/s]	pEC50 [2]	Compound
8.40	3.8	6.41	CCCc1cn(-c2cnc(-n3ncc4cc(C#N)cnc43)cc2Nc2cnn(CC(F)F)c2)nn1 [Example 269, 1-(4-((1-(2,2-difluoroethyl)-1H-pyrazol-4-yl)amino)-5-(4-propyl-1H-1,2,3-triazol-1-yl)pyridin-2-yl)-1H-pyrazolo[3,4-b]pyridine-5-carbonitrile]
8.70	39.4	6.80	CC(C)Nc1cc(-n2ncc3cc(C#N)cnc32)ncc1-c1cc(C2COC(C)(C)CN2)no1 (stereo not drawn) [Example 423, 1-(5-(3-(6,6-dimethylmorpholin-3-yl)isoxazol-5-yl)-4-(isopropylamino)pyridin-2-yl)-1H-pyrazolo[3,4-b]pyridine-5-carbonitrile]
8.52	< 1.5	6.52	CC(=O)NC1CCC(c2cn(-c3cnc(-n4ncc5cc(C#N)cnc54)cc3NC(C)C)nn2)CC1 (stereo not drawn) [Example 341, N-((1s,4s)-4-(1-(6-(5-cyano-1H-pyrazolo[3,4-b]pyridin-1-yl)-4-(isopropylamino)pyridin-3-yl)-1H-1,2,3-triazol-4-yl)cyclohexyl)acetamide]
8.40	< 1.5	6.89	CC(=O)N1CCC(n2cc(-c3cnc(-n4ncc5cc(C#N)cnc54)cc3NC(C)C)nn2)CC1 [Example 159, 1-(5-(1-(1-acetylpiperidin-4-yl)-1H-1,2,3-triazol-4-yl)-4-(isopropylamino)pyridin-2-yl)-1H-pyrazolo[3,4-b]pyridine-5-carbonitrile]
8.40	30	6.04	CC(C)Nc1cc(-n2ncc3cc(C#N)cnc32)ncc1-c1cn(CCCCF)nn1 [Example 48, 1-(5-(1-(4-fluorobutyl)-1H-1,2,3-triazol-4-yl)-4-(isopropylamino)pyridin-2-yl)-1H-pyrazolo[3,4-b]pyridine-5-carbonitrile]
8.40	24.8	6.70	CC(C)Nc1cc(-n2ncc3cc(C#N)cnc32)ncc1-n1cc(C2CCN(C(=O)C(F)(F)F)CC2)nn1 [Example 386, 1-(4-(isopropylamino)-5-(4-(1-(2,2,2-trifluoroacetyl)piperidin-4-yl)-1H-1,2,3-triazol-1-yl)pyridin-2-yl)-1H-pyrazolo[3,4-b]pyridine-5-carbonitrile]
8.40	23.4	6.51	CC(C)Nc1cc(-n2ncc3cc(C#N)cnc32)ncc1-c1cn(CCN2CCOCC2)nn1 [Example 12, 1-(4-(isopropylamino)-5-(1-(2-morpholinoethyl)-1H-1,2,3-triazol-4-yl)pyridin-2-yl)-1H-pyrazolo[3,4-b]pyridine-5-carbonitrile]
8.30	14	6.07	CC(C)Nc1cc(-n2ncc3cc(C#N)cnc32)ncc1-c1cn(CC2CC2)nn1 [Example 16, 1-(5-(1-(cyclopropylmethyl)-1H-1,2,3-triazol-4-yl)-4-(isopropylamino)pyridin-2-yl)-1H-pyrazolo[3,4-b]pyridine-5-carbonitrile]
8.52	31.7	6.32	CC(C)Nc1cc(-n2ncc3cc(C#N)cnc32)ncc1-c1cc(C2CC(F)(F)CCN2)no1 (stereo not drawn) [Example 422, 1-(5-(3-(4,4-difluoropiperidin-2-yl)isoxazol-5-yl)-4-(isopropylamino)pyridin-2-yl)-1H-pyrazolo [3,4-b]pyridine-5-carbonitrile]
8.52	7.2	6.74	CC(C)Nc1cc(-n2ncc3cc(C#N)cnc32)ncc1-c1cn(CCc2ccccc2)nn1 [Example 56, 1-(4-(isopropylamino)-5-(1-phenethyl-1H-1,2,3-triazol-4-yl)pyridin-2-yl)-1H-pyrazolo [3,4-b]pyridine-5-carbonitrile]
8.70	< 1.5	6.80	CC(C)Nc1cc(-n2ncc3cc(C#N)cnc32)ncc1-n1cc(CCC(C)(C)OC(=O)CN)nn1 [Example 378, 4-(1-(6-(5-cyano-1H-pyrazolo[3,4-b]pyridin-1-yl)-4-(isopropylamino)pyridin-3-yl)-1H-1,2,3-triazol-4-yl)-2-methylbutan-2-yl glycinate]
8.70	19.5	6.22	CC(C)Nc1cc(-n2ccc3cc(C#N)cnc32)ncc1-c1cn(CCN2CCOCC2)nn1 [Example 163, 1-(4-(isopropylamino)-5-(1-(2-morpholinoethyl)-1H-1,2,3-triazol-4-yl)pyridin-2-yl)-1H-pyrrolo[2,3-b]pyridine-5-carbonitrile, 2TFA]
8.52	< 1.5	6.44	[2H]C([2H])([2H])C(=O)N1CC(n2cc(-c3cnc(-n4ncc5cc(C#N)cnc54)cc3NC(C)C)nn2)C1 [Example 140, 1-(5-(1-(1-trideuteroacetylazetidin-3-yl)-1H-1,2,3-triazol-4-yl)-4-(isopropylamino)pyridin-2-yl)-1H-pyrazolo[3,4-b]pyridine-5-carbonitrile]
